Test [1] deals with HEL92.1.7. The test is described as follows: AlamarBlue proliferation assay, GI50. It counts as cell-based. The conditions noted are these: Homo sapiens, HEL 92.1.7, 72 hours, Table 4, read-out: GI50 HEL92.1.7 Erythroleukemia. As for the experimental part: (§1) The TAK1 inhibitors are known in the art (see for example, WO 2003010158, WO 2003010163 and WO2004063186 the disclosures of which are incorporated by reference herein). All cell lines were plated at 10,000 cells/well in flat-bottomed 96 well plates and dosed with test compounds in triplicate over a 10 point dosing range from 0 to 30 μmolesL^−1. All cell lines were incubated with test compounds for a total of 72 hours. Background levels were determined for a control (undosed) plate within 2 hours of dosing test compounds. Following the dosing period, the extent of proliferation was measured by adding 1/10 (vol/vol) AlamarBlue reagent to every well and incubating the plates for a further 4 hours. The reaction was stopped by the addition of SDS to a final concentration of 0.1%. Fluorescence was measured at 545 nm (excitation) and 600 nm (emission). Growth inhibition 50 (GI50) values were determined for each test compound across the panel.
On the technique in general: The colour change of resazurin is a common sign of viable cells or microbes.

Test [2] concerns SUDHL4. The experiment in a line: AlamarBlue proliferation assay, GI50. The conditions noted are these: Homo sapiens, SU-DHL-4, 72 hours. It counts as cell-based. As for the experimental part:
as §1

The test system of test [3] is OCI-LY19. The test is described as follows: AlamarBlue proliferation assay, GI50. To be noted: Homo sapiens, 72 hours. It counts as cell-based. The procedure:
as §1

Test [4] concerns WSU-NHL. The test is described as follows: AlamarBlue proliferation assay, GI50. It counts as cell-based. The conditions noted are these: Homo sapiens, 72 hours, Table 4, read-out: GI50 WSU-NHL B-NHL. As for the experimental part:
as §1

Test [5] concerns KG1a. The test is described as follows: AlamarBlue proliferation assay, GI50. It counts as cell-based. To be noted: Homo sapiens, KG-1a, 72 hours, Table 4, read-out: GI50 KG1a AML. The procedure: as §1
The subject of test [6] is DOHH2. The test is described as follows: AlamarBlue proliferation assay, GI50. It counts as cell-based. To be noted: Homo sapiens, DOHH-2, 72 hours. The procedure: as §1
Test [7] deals with MEC1. The test is described as follows: AlamarBlue proliferation assay, GI50. It counts as cell-based. To be noted: Homo sapiens, 72 hours. As for the experimental part:
as §1

Test [8] has as its system ARH77. The experiment in a line: AlamarBlue proliferation assay, GI50. The conditions noted are these: Homo sapiens, ARH-77, 72 hours. It counts as cell-based. The procedure: as §1
The test system of test [9] is Jurkat. The test is described as follows: AlamarBlue proliferation assay, GI50. It counts as cell-based. The conditions noted are these: Homo sapiens, 72 hours, Table 4, read-out: GI50 Jurkat T-ALL. As for the experimental part: as §1
Test [10] has as its system Karpas231. The experiment in a line: AlamarBlue proliferation assay, GI50. To be noted: Homo sapiens, 72 hours. It counts as cell-based. As for the experimental part:
as §1

For test [11], the system named is Raji. The experiment in a line: AlamarBlue proliferation assay, GI50. It counts as cell-based, human. The conditions noted are these: Homo sapiens, Raji, 72 hours, Table 4, read-out: GI50 Raji Burkitts Lymphoma. As for the experimental part: as §1
The target of test [12] is T1, TAK1 (Homo sapiens, UniProt O43318).
T1 sequence (O43318 1-606): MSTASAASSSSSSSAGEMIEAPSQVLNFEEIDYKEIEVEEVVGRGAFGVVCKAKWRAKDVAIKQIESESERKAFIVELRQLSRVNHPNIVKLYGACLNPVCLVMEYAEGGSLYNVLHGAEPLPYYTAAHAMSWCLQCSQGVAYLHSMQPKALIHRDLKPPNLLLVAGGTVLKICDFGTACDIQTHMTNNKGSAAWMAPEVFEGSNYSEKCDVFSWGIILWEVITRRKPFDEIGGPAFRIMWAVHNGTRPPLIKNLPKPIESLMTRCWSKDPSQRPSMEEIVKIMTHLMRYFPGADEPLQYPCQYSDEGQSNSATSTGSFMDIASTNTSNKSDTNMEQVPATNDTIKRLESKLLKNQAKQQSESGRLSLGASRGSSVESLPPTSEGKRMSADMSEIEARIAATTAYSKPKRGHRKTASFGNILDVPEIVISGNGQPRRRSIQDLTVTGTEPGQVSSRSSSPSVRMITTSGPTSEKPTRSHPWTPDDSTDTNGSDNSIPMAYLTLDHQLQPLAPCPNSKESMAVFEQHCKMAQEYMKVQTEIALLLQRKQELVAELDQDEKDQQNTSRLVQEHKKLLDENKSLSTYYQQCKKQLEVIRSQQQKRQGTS
T1 sequence (Q15750 1-504 partner): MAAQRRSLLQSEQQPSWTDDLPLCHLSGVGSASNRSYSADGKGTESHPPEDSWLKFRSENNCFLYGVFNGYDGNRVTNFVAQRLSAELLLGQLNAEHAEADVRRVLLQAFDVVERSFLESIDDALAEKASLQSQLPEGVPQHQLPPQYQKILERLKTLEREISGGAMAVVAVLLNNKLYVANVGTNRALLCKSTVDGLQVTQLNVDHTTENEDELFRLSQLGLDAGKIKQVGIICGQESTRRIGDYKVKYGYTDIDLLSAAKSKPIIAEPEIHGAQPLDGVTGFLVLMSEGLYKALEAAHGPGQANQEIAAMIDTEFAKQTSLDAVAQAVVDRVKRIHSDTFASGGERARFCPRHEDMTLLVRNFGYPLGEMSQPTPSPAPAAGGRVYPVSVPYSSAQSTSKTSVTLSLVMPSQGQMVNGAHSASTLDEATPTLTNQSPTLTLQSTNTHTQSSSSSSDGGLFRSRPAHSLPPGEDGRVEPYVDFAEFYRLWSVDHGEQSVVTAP
The experiment in a line: TAK1 enzyme inhibition. To be noted: Table 4; read-out: TAK1 pIC50 (enzyme) (converted). It counts as biochemical.

The test system of test [13] is MOLP-8. The test is described as follows: AlamarBlue proliferation assay, GI50. To be noted: Homo sapiens, 72 hours, Table 8, read-out: GI50 MOLP-8 Multiple myeloma. It counts as cell-based. As for the experimental part: as §1
(§2) The experiments to generate the results for both Tables 5 and 6 were performed as described above.

Test [14] deals with RPMI-8226. The test is described as follows: AlamarBlue proliferation assay, GI50. It counts as cell-based. The conditions noted are these: Homo sapiens, 72 hours, Table 8, read-out: GI50 RPMI-8226 M.M. As for the experimental part: as §1, §2
Test [15] deals with JJN-3. The test is described as follows: AlamarBlue proliferation assay, GI50. It counts as cell-based. To be noted: Homo sapiens, 72 hours, Table 8, read-out: GI50 JJN-3 plasma cell leukemia. As for the experimental part:
as §1, §2

For test [16], the system named is WSU DLCL2. The test is described as follows: AlamarBlue proliferation assay, GI50. It counts as cell-based. The conditions noted are these: Homo sapiens, WSUDLCL2, 72 hours, Table 7, read-out: GI50 WSU-DLCL B cell lymphoma. As for the experimental part: as §1, §2
Test [17] has as its system IM-9. The test is described as follows: AlamarBlue proliferation assay, GI50. It counts as cell-based. The conditions noted are these: Homo sapiens, 72 hours, Table 8, read-out: GI50 IM-9 B lymphoblastoid. The procedure:
as §1, §2

In test [18] the test system is L-363. The experiment in a line: AlamarBlue proliferation assay, GI50. The conditions noted are these: Homo sapiens, 72 hours, Table 8, read-out: GI50 L-363 plasma cell leukemia. It counts as cell-based. As for the experimental part:
as §1, §2

In test [19] the test system is JVM-3. The test is described as follows: AlamarBlue proliferation assay, GI50. It counts as cell-based. To be noted: Homo sapiens, 72 hours, Table 7, read-out: GI50 JVM-3 B-PLL. The procedure:
as §1, §2

The test system of test [20] is AM0-1. The test is described as follows: AlamarBlue proliferation assay, GI50. It counts as cell-based. To be noted: Homo sapiens, 72 hours, Table 8, read-out: GI50 AM0-1 plasmacytoma. As for the experimental part:
as §1, §2

The test system of test [21] is JEKO-1. The experiment in a line: AlamarBlue proliferation assay, GI50. It counts as cell-based. The conditions noted are these: Homo sapiens, 72 hours, Table 7, read-out: GI50 JEKO-1 MCL. The procedure:
as §1, §2

Test [22] deals with Lymphoma cell lines carrying the t(14;18) chromosomal translocation. The test is described as follows: AlamarBlue proliferation assay, Example 2. It counts as cell-based. The conditions noted are these: t(14;18) lymphoma cell lines, 72 hours, 0 to 30 μmoles/L, FIG. 3. As for the experimental part: The chemical name of the compound is 3-[(aminocarbonyl)amino]-5-(4-{[4-(2-methoxyethyl)piperazin-1-yl]methyl}phenyl)thiophene-2-carboxamide.
More specifically, cell lines (OCI-LY19, DOHH2, Karpas231, WSU-NHL and SUDHL4 carry the t(14;18) translocation) were plated at 10,000 cells/well in flat-bottomed 96 well plates and dosed with test compounds in triplicate over a 10 point dosing range from 0 to 30 μmolesL^−1. All cell lines were incubated with test compounds for a total of 72 hours. Background levels were determined for a control (undosed) plate within 2 hours of dosing test compounds. Following the dosing period, the extent of proliferation was measured by adding 1/10 (vol/vol) AlamarBlue reagent to every well and incubating the plates for a further 4 hours. The reaction was stopped by the addition of SDS to a final concentration of 0.1%. Fluorescence was measured at 545 nm (excitation) and 600 nm (emission). GI50 values were determined for each test compound across the panel.

The mark [23] stands for this setting: Table 4, read-out: GI50 SUDHL4 DLBCL.
[24] abbreviates: Table 4, read-out: GI50 OCI-LY19 DLBCL.
The mark [25] stands for this setting: Table 4, read-out: GI50 DOHH2 FL.
The mark [26] stands for this setting: Table 4, read-out: GI50 MEC1 B-CLL.
The mark [27] stands for this setting: Table 4, read-out: GI50 ARH77 Plasma cell leukemia.
[28] abbreviates: Table 4, read-out: GI50 Karpas231 B-ALL.

5 compounds from US20090312396A1, “METHODS FOR CANCER TREATMENT USING TAK1 INHIBITORS” (AstraZeneca AB, priority 2006, published 2009) can be followed below.

Read-outs that look alike come from different tables or passages of the source.

Broadly, the GI50 is the concentration at which growth is held to half of that of the control. Regarding `NC(=O)Nc1cc(-c2ccc(CN3CCOCC3)cc2)sc1C(N)=O` [Compound 3, 3-[(aminocarbonyl)amino]-5-[4-(morpholin-4-ylmethyl)phenyl]thiophene-2-carboxamide], the GI50 came out at 500 nM in test [1]; 2720 nM in test [2] (setting [23]); 85 nM in test [3] (setting [24]); 420 nM in test [4]; 430 nM in [5]; 175 nM in test [6] (setting [25]). The GI50 is 630 nM in test [7] (setting [26]); 480 nM in [8] (setting [27]); more than 30000 nM in test [9]; 160 nM in test [10] (setting [28]); more than 30000 nM in test [11]. Moreover, the IC50 in test [12] is 100 nM.
Turning to `COc1cc(O)c2c(c1)/C=C/C[C@H](O)[C@H](O)C(=O)/C=C\C[C@H](C)OC2=O` [LL-Z-1640-2, (3S,5Z,8S,9S,11E)-8,9,16-trihydroxy-14-methoxy-3-methyl-3,4,9,10-tetrahydro-1H-2-benzoxacyclotetradecine-1,7(8H)-dione, reference compound], the GI50 was 10400 nM in [13]; 1410 nM in [14]; not below 32400 nM in test [15]; 20 nM in test [16]; 20 nM in [17]; not below 32400 nM in test [18]. The GI50 in test [19] came out at 710 nM; in [20] it was 570 nM; in test [21] it was 70 nM; in test [2] (Table 7, read-out: GI50 SUDHL4 DLBCL), 1640 nM; in test [3] (Table 7, read-out: GI50 OCI-LY19 DLBCL), 230 nM; in test [6] (Table 7, read-out: GI50 DOHH2 FL), 390 nM. Moreover, the GI50 in [7] (Table 7, read-out: GI50 MEC1 B-CLL) is 730 nM; in test [8] (Table 8, read-out: GI50 ARH-77 plasma cell leukemia), 1240 nM; in [10] (Table 7, read-out: GI50 KARPAS231 B-ALL), 950 nM.
For the compound `COCCN1CCN(Cc2ccc(-c3cc(NC(N)=O)c(C(N)=O)s3)cc2)CC1` [TAK1 inhibitor, 3-[(aminocarbonyl)amino]-5-(4-{[4-(2-methoxyethyl)piperazin-1-yl]methyl}phenyl)thiophene-2-carboxamide], in test [22], the “sensitivity of cell lines to TAK1 inhibitor” value is listed as “sensitive”.
Turning to `NC(=O)Nc1sc(-c2ccc(CN3CCOCC3)cc2)cc1C(N)=O` [Compound 1, 2-[(aminocarbonyl)amino]-5-[4-(morpholin-4-ylmethyl)phenyl]thiophene-3-carboxamide], the GI50 worked out at 730 nM in [1]; 6390 nM in test [2] (setting [23]); 124 nM in test [3] (setting [24]); 370 nM in [4]; 450 nM in test [5]; 127 nM in [6] (setting [25]). The GI50 in test [7] (setting [26]) came out at 1340 nM; in [8] (setting [27]), 1170 nM; in [9], 15900 nM; in [10] (setting [28]), 300 nM; in test [11], 15200 nM. Besides, the IC50 in [12] is 126 nM.
Take `CC(c1ccc(-c2cc(C(N)=O)c(NC(N)=O)s2)cc1)N1CCCCC1` (stereo not shown) [Compound 2, 2-[(aminocarbonyl)amino]-5-[4-(1-piperidin-1-ylethyl)phenyl]thiophene-3-carboxamide]: the GI50 in test [1] was 170 nM; in [2] (setting [23]), 2420 nM; in [3] (setting [24]) it was 5 nM; in test [4], 250 nM; in test [5], 400 nM; in test [6] (setting [25]), 14 nM. The GI50 in test [7] (setting [26]) turned out to be 160 nM; in test [8] (setting [27]) it was 250 nM; in [9], 4390 nM; in [10] (setting [28]), 140 nM; in [11], 3500 nM. For the same compound, in test [12], the IC50 is 50.1 nM.
